Target: T1, human recombinant Yes [a.a. 2–543 (end)] (Homo sapiens, UniProt P07947)
T1 construct: human recombinant Yes [a.a; 2–543 (end)]; purchased BPS Bioscience 40488
Experiment: ADP-Glo kinase assay, inhibition rates of Yes phosphorylation activity (first and second screening)
Assay type: biochemical
Conditions: 10 μmol L−1 compound; for First screening IR (inhibition rate): mean of n = 4 wells; for Second screening IR (inhibition rate): dissolved from fresh powder, n = 4
Summary of the method: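 Hits from a first pass were rescreened after re-dissolution from fresh powder. The first pass reported the mean inhibition rate of quadruplicate wells per compound. Activity was that of recombinant human Yes [a.a. 2–543] kinase, read out with the ADP-Glo ADP-detection method.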

T1 sequence (P07947 2-543): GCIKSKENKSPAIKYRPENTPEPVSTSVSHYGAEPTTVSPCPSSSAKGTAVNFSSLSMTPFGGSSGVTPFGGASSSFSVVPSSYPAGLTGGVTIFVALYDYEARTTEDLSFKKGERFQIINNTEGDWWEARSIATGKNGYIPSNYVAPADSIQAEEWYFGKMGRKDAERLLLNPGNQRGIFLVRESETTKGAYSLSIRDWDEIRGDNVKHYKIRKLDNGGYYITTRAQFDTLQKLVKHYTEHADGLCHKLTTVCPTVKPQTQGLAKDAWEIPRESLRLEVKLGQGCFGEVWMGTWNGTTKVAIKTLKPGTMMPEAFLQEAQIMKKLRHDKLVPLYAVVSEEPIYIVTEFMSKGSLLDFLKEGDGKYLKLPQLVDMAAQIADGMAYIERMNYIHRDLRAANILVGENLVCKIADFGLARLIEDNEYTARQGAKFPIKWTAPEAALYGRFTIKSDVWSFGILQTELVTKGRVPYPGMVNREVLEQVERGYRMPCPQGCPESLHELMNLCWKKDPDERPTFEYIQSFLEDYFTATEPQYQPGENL

Row | First screening IR (inhibition rate) [%] | Second screening IR (inhibition rate) [%] | SMILES
1 | 1 | – | O=C(Nc1ccccc1)C1CCN(C(=O)C2CCOCC2)CC1 [Compound Z96031302]
2 | 7 | – | O=C(C1CC1)N1CCCCCC1C1CCN(Cc2nnc(C3CC3)o2)CC1 (stereo not drawn) [Compound Z1170432033]
3 | 27 | -4 | CN(C)c1ccc(/C=c2/s/c(=C(/C#N)C(=O)NCCN3CCOCC3)n(Cc3ccco3)c2=O)cc1 [Compound Z48025165]
4 | 4 | – | Clc1ccccc1Cn1ncc2c(NCCc3ccccc3)ncnc21 [Compound Z1172235413]
5 | 30 | – | Cn1ccnc1C(Nc1cnn(Cc2ccccc2)c(=O)c1Cl)c1ccccc1 (stereo not drawn) [Compound Z185383718]
6 | 14 | – | N#CC(C#N)=CC1=C2OC(c3ccccc3)=CC(c3ccccc3)=C2CCC1 [Compound Z56760799]
7 | -6 | – | O=C(Nc1nc(-c2ccc[nH]2)cs1)c1csc(-c2ccco2)n1 [Compound Z296244664]
8 | 10 | – | CCN(C1CCS(=O)(=O)C1)S(=O)(=O)c1ccc(C)c(C)c1 (stereo not drawn) [Compound Z45467115]
9 | -5 | – | CCn1ncc2c(C(=O)N(C)Cc3ccc(SC)cc3)cc(-c3ccccc3)nc21 [Compound Z224588706]
10 | -12 | – | Oc1ccc(F)cc1C1=NNC(c2cc(Br)cc3c2OCOC3)C1 (stereo not drawn) [Compound Z57604399]
11 | 8 | – | Cc1ccc(C)c(CN2CCN(c3nc4c(c(=O)[nH]c(=O)n4C)n3Cc3ccc(Cl)cc3)CC2)c1 [Compound Z237733696]
12 | 13 | – | COc1ccccc1-c1cc(NC(=O)c2ccc(Cn3cncn3)cc2)n[nH]1 [Compound Z927972178]
13 | -17 | – | COc1ccc(Br)c(C(=O)NCc2ccc(-c3csc(C)n3)cc2)c1 [Compound Z131231284]
14 | 15 | – | O=C(O)c1ccc2nc3c(nc2c1)-c1cccc2cccc-3c12 [Compound Z55723243]
15 | 26 | – | O=C1CN(c2nc(C(F)(F)F)nc3ccsc23)CCN1 [Compound Z370715174]
16 | 13 | – | Clc1ccc(/C=N/Nc2ncnc3c2cnn3-c2ccccc2)cc1 [Compound Z56795594]
17 | -17 | – | CC1CCN(c2ccc([N+](=O)[O-])cc2C(=O)N2CCN(Cc3cn4cc(Cl)ccc4n3)CC2)CC1 [Compound Z901305410]
18 | -6 | – | COc1cc2cc(C3CC(C4CC4)=NN3C(C)=O)c(Cl)nc2cc1OC (stereo not drawn) [Compound Z431511574]
19 | -14 | – | CCCN1CCN(c2ccc(S(=O)(=O)NC3CCC(C)CC3)cc2[N+](=O)[O-])CC1 (stereo not drawn) [Compound Z31152357]
20 | -13 | – | Cc1c[nH]c(=O)n1-c1cccc(NC(=O)C2CC(=O)N(C)C2c2cccnc2)c1 (stereo not drawn) [Compound Z1204166998]
21 | 8 | – | CCN1CCN(S(=O)(=O)C2CS(=O)(=O)c3ccccc32)CC1 (stereo not drawn) [Compound Z1031094372]
22 | 3 | – | Cc1cccc(NC(=O)CNC(=O)c2cn3c(C)cccc3n2)c1C [Compound Z27271554]
23 | 5 | – | COc1ccc(-n2ccc(C(=O)N3CCCCC3c3cn[nH]c3)n2)cc1 (stereo not drawn) [Compound Z1198921141]

Row | First screening IR (inhibition rate) [%] | Second screening IR (inhibition rate) [%] | SMILES
24 | 1 | – | NC(=O)c1cc(-c2ccccc2)nc2c1cnn2Cc1ccc(Cl)cc1 [Compound Z116821638]
25 | -3 | – | Cc1ccc(NC(=O)CC2SC(=Nc3ccccc3C)N(CCCN3CCOCC3)C2=O)c([N+](=O)[O-])c1 (stereo not drawn) [Compound Z48462494]
26 | 8 | – | CCN(CC)CCC1S(=O)(=O)CC(c2ccccc2)CS1(=O)=O (stereo not drawn) [Compound Z56768715]
27 | 6 | – | O=C(N/N=C/C=C/c1ccco1)c1ccc(-c2ccc(F)cc2)s1 [Compound Z839335172]
28 | -10 | – | C#CCN(C1CCS(=O)(=O)C1)S(=O)(=O)c1ccccc1F (stereo not drawn) [Compound Z734126534]
29 | -1 | – | COc1cccc(OCCN2CCN(c3cc(C)nc4c(-c5ccc(F)cc5)c(C(F)(F)F)nn34)CC2)c1 [Compound Z432102126]
30 | 9 | – | CCOC(=O)c1cc(-c2ccccc2)nc2[nH]c(=O)c3ccccc3c12 [Compound Z295883036]
31 | 48 | – | O=C(c1ccc(=O)[nH]c1)N1CCN(C(=O)c2cc3ccccc3o2)CC1 [Compound Z368093014]
32 | 0 | – | CS(=O)(=O)c1ccc(Cl)c(S(C)(=O)=O)c1 [Compound Z87002147]
33 | 13 | – | O=C1Cc2cc(Nc3nccc(C(F)(F)F)n3)ccc2N1 [Compound Z1199266078]
34 | 45 | – | CCC(C)(C)C1C/C(=C\c2c(Cl)cccc2Cl)c2nc3ccccc3c(C(=O)O)c2C1 (stereo not drawn) [Compound Z46116634]
35 | 62 | -11 | O=C(C1=C(O)C(=O)N(CCCn2ccnc2)C1c1cccc([N+](=O)[O-])c1)c1ccco1 (stereo not drawn) [Compound Z57237939]
36 | 12 | – | CC(Sc1n[nH]c(/C=C/c2ccccc2)n1)c1nc(C(C)(C)C)no1 (stereo not drawn) [Compound Z298272042]
37 | 6 | – | COc1ccc(CSCc2nc(N)nc(Nc3ccccc3C)n2)cc1F [Compound Z45342622]
38 | -4 | – | CCn1ncc2c(C(=O)N3CCN(CC(=O)Nc4cccc(C)c4C)CC3)cc(-c3ccccc3)nc21 [Compound Z224933090]
39 | -13 | – | C[S+]([O-])CCNC(=O)c1ccc(-c2cc(Cl)cc(Cl)c2)s1 (stereo not drawn) [Compound Z1220303895]
40 | -34 | – | Nc1nc(CSc2ncc(-c3ccc(F)cc3)o2)nc2ccccc12 [Compound Z226851604]
41 | -5 | – | CCCCCn1c(=O)c2ccccc2n2c(SCC(=O)NC(=O)NC3CCCC(C)C3C)nnc12 (stereo not drawn) [Compound Z17895832]
42 | 24 | – | Nc1ncnc(Nc2ccc(Br)cc2)n1 [Compound Z56786772]
43 | -1 | – | COC(=O)c1cn(C)c(-c2ccc(NC(=O)c3ccc(CN4CCCCC4)cc3)cc2)c1C(=O)OC [Compound Z415024646]
44 | 0 | – | O=C(NCCN1CCc2ccccc2C1)Nc1ccncc1F [Compound Z1677754180]
45 | 0 | – | CCc1c(C(=O)CN2CCCC2c2ccsc2)[nH]c(C)c1C(C)=O (stereo not drawn) [Compound Z839968520]
46 | -6 | – | CCCCc1ccc(NC(=S)N2CC3(C)CC2CC(C)(C)C3)cc1 (stereo not drawn) [Compound Z45795780]

Row | First screening IR (inhibition rate) [%] | Second screening IR (inhibition rate) [%] | SMILES
47 | 45 | – | Cc1ccc2c(=O)c(C(=O)N(C)CC(=O)Nc3ccc(Cl)c(Cl)c3)c[nH]c2n1 [Compound Z454409356]
48 | -10 | – | c1ccc(-c2nc(NCc3ccc(-n4cncn4)cc3)no2)cc1 [Compound Z1722673239]
49 | 44 | – | CCn1c(O)c(N=Nc2ccc([N+](=O)[O-])cc2S(=O)(=O)Nc2ccc(C)cc2C)c2ccccc21 [Compound Z49643067]
50 | -3 | – | CS(=O)(=O)c1ccccc1S(=O)(=O)N1CCCC1 [Compound Z285664942]
51 | 11 | – | Cc1cc(F)ccc1S(=O)(=O)Nc1ccc(C(=O)Nc2cccc(CO)c2)cc1 [Compound Z32804094]
52 | 6 | – | CN(C)S(=O)(=O)CCCS(=O)(=O)Cc1cccc(F)c1 [Compound Z1127660834]
53 | 48 | – | CCc1ccccc1NC(=O)CNC(=O)c1cc2ccccc2[nH]1 [Compound Z27562098]
54 | 12 | – | Cc1ccc(-c2cc(-c3ccccc3F)c3cc(Cl)ccc3n2)cc1.Cl [Compound Z48955827]
55 | -3 | – | Cc1ccc(S(=O)(=O)C2CS(=O)(=O)CC2O)cc1 (stereo not drawn) [Compound Z56757815]
56 | -21 | – | FC(F)(F)c1ccnc(Nc2ccc(N3CCCCCC3)cc2)n1 [Compound Z642699568]
57 | 11 | – | C(=C\c1nc2cc(-c3ccccc3)ccc2o1)/c1cccnc1 [Compound Z46080472]
58 | 9 | – | Cc1ccc(Cn2ncc3c(NN)ncnc32)cc1 [Compound Z57458515]
59 | 49 | -4 | Cn1c(=O)n(CCN2CCOCC2)c(=O)c2c1nc1n2CCN1c1ccc(Oc2ccccc2)cc1 [Compound Z223838602]
60 | 6 | – | CC(C)(C)c1cc(-n2c(-c3cccnc3)nc3cc4c(cc32)OCCO4)cc(C(C)(C)C)c1O [Compound Z56793119]
61 | 1 | – | COc1cccc(-c2cc(-c3ccccc3)c3cc(Cl)ccc3n2)c1.Cl [Compound Z48950797]
62 | 15 | – | Cc1ccccc1Nc1ncnc(N)n1 [Compound Z56791580]
63 | 14 | – | Cc1ccccc1-c1cc(C(N)=O)c2cnn(C(C)C)c2n1 [Compound Z229615400]
64 | -51 | – | O=[N+]([O-])c1ccc(N2CCC(C(O)c3ncc[nH]3)CC2)nc1-c1ccccc1 (stereo not drawn) [Compound Z1823608663]
65 | 28 | – | Cc1ccc(CSCC(=O)NC(Cc2ncc[nH]2)c2ccccc2)cc1 (stereo not drawn) [Compound Z230096354]
66 | -22 | – | CCCCn1c(CN2CCN(C(=O)c3ccco3)CC2)nc2c1c(=O)[nH]c(=O)n2Cc1ccccc1 [Compound Z104777504]
67 | 0 | – | Cc1noc(C)c1CCC(=O)Nc1nc2cc(C(F)(F)F)ccc2n1Cc1ccco1 [Compound Z193270258]
68 | -6 | – | Cc1cc(C)nc(N/N=C/c2ccc3ncccc3c2)n1 [Compound Z49539423]
69 | 3 | – | O=C1COc2ccc(C(=O)/C=C/c3ccc(OC(F)F)cc3)cc2N1 [Compound Z94572736]

From paper PMC5607274, “An iterative compound screening contest method for identifying target protein inhibitors using the tyrosine-protein kinase Yes” (Scientific Reports, 2017)
